Data on 2 compounds can be found in PMC10743971, “MP Allosterically Activates AMPK to Enhance ABCA1 Stability by Retarding the Calpain-Mediated Degradation Pathway” (International Journal of Molecular Sciences, 2023).

The target of assay [1] is T1, AMPK (AMPKα1β1γ1) (Rattus norvegicus, UniProt P80385).
T1 construct: gene Prkag1; recombinant full-length AMPKα1β1γ1 heterotrimer, 6×His tag at the N-terminal end of the α-subunit; with AMPK α1 (Prkaa1) and β1 (Prkab1) subunits
The assay is described as follows: STD-NMR and NMR competition titration against MP. It is filed as binding.

Assay [2] concerns the target T1, AMPK (AMPKα1β1γ1). The assay is described as follows: MST (Kd […]); ITC (Kd […]); STD-NMR; CD. It is filed as binding.

T1 sequence (P80385 whole entry): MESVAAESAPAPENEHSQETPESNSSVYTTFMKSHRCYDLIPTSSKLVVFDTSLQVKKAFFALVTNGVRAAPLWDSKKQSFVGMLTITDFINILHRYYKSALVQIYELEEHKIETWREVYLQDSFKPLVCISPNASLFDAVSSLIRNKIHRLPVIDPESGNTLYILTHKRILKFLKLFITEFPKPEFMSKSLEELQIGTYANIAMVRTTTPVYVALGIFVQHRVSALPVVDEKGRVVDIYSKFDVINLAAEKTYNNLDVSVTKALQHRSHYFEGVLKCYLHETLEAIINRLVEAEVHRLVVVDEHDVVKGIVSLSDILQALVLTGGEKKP
T1 sequence (P54645 whole entry partner): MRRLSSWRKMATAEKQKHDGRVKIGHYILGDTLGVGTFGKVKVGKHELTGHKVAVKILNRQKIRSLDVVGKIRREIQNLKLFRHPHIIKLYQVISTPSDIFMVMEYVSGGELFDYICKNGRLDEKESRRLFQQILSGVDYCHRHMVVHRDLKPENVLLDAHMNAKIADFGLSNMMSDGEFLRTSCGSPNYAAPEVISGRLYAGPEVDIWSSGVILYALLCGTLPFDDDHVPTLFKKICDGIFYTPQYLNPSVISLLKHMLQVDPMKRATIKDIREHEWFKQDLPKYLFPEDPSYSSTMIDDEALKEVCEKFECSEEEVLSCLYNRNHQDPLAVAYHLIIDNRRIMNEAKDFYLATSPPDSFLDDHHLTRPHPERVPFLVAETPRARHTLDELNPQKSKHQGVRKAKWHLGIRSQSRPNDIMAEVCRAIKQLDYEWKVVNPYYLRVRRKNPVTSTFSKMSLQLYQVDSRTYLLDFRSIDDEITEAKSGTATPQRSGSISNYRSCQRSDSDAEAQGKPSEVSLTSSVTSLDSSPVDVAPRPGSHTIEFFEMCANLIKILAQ
T1 sequence (P80386 2-270 partner): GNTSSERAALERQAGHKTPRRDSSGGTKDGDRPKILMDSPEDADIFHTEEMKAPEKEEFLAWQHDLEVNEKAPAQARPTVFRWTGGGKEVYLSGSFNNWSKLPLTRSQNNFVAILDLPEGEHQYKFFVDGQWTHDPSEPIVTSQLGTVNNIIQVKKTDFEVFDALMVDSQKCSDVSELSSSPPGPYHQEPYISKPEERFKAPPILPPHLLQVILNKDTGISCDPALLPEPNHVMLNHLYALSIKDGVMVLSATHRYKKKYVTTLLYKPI

For `Nc1ncnc2c1ncn2[C@@H]1O[C@H](COP(=O)(O)O)[C@@H](O)[C@H]1O` [AMP, adenosine monophosphate], in assay [1], the “STD-NMR and NMR competition titration against MP” value was “adenosine monophosphate (AMP) and MP bind directly to AMPK”.
The term Kd denotes the free concentration of one partner at which half of the binding sites on the other are occupied at equilibrium, for simple one-to-one binding. High values mean a looser complex, low ones a tighter complex. In the case of `O=P(O)(O)OC[C@H]1O[C@@H](n2cnc3c(Nc4cccc(O)c4)ncnc32)[C@H](O)[C@@H]1O` [MP, ((2R,3S,4R,5R)-3,4-dihydroxy-5-(6-((3-hydroxyphenyl)amino)-9H-purin-9-yl)tetrahydrofuran-2-yl) methyl dihydrogen phosphate], in assay [2], the Kd came out at 4.27 µM.
